Measurements published in patent US9745335B2 (Blirt S.A., priority 2012, dated 2017).

Legend:
[1] = system: Candida albicans clinical strain B4 (CaMdr1p); assay: antifungal activity against MDR fungal strains and parents; assay type: cell-based; conditions: C. albicans B4 (CaMdr1p), fluconazole-resistant
Protocol: (§1) For the determination of antifungal activity in vitro we used method of serial dilution in buffered medium RPMI 1640, pH 7.0, in a 96-wells microplates, according to the standard procedure (National Committee for Clinical Laboratory Standards. Reference method for broth dilution antifungal susceptibility testing of yeast, approved standard, 2nd ed. M27-A2 vol. 22 Wayne, Pa., 2002). The optical density of cells suspension was measured using a microplates reader (Victor^3, Perkin-Elmer) at the wavelength λ=531 nm (A531). On the basis of obtained results the diagrams of relation between A531 values and concentration of examined compound were made.

[2] = system: Candida albicans clinical strain F2; assay: as above; assay type: cell-based; conditions: C. albicans F2, fluconazole sensitive, parent strain for F5
Protocol: as §1

[3] = system: Candida albicans strain STY31; assay: as above; assay type: cell-based; conditions: C. albicans STY31, 5674 derivative, deletion of CDR1 and CDR2
Protocol: as §1

[4] = system: Candida albicans strain 5674 (CaCdr1p, CaCdr2p); assay: as above; assay type: cell-based; conditions: C. albicans 5674 (CaCdr1p, CaCdr2p)
Protocol: as §1

[5] = system: Candida albicans strain STY7 (CaCdr1p); assay: as above; assay type: cell-based; conditions: C. albicans STY7 (CaCdr1p), 5674 derivative, deletion of CDR2
Protocol: as §1

[6] = system: Candida albicans clinical strain B3; assay: as above; assay type: cell-based; conditions: C. albicans B3, fluconazole sensitive, parent strain for B4
Protocol: as §1

[7] = system: Candida albicans clinical strain F5 (CaMdr1p); assay: as above; assay type: cell-based; conditions: C. albicans F5 (CaMdr1p), fluconazole-resistant
Protocol: as §1

[8] = system: Candida albicans clinical strain Gu4; assay: as above; assay type: cell-based; conditions: C. albicans Gu4, fluconazole sensitive, parent strain for Gu5
Protocol: as §1

[9] = system: Candida albicans clinical strain Gu5 (CaCdr1p, CaCdr2p); assay: as above; assay type: cell-based; conditions: C. albicans Gu5 (CaCdr1p, CaCdr2p), fluconazole-resistant
Protocol: as §1

[10] = system: CCRF-CEM cells; assay: cytotoxic activity against mammalian cells in tissue culture (MTT); assay type: cell-based, human
Protocol: (§2) All media contained 100 μg/ml of penicillin G and streptomycin. 24-wells microplates containing appropriate medium were inoculated with the cells in amount of 1.2×10^4 cells/well and allowed to stand overnight. Next, tested compounds as solution in dimethylsulfoxide (DMSO) were added in volume of 10 μl (serial 2× dilutions). To control well 10 μl of DMSO was added. Microplates with cell suspensions were incubated for 120 h at temperature 37° C. at atmosphere of 95%/5% CO2. After incubation, to all wells 200 μl of solution of 3-(4,5-dimethyltiazole-2-yl)-2,5-diphenylotetrazole bromide (MTT) in PBS (4 mg/ml) was added and plates were further incubated for 4 h at 37° C. Next, to dissolve crystals of formazane 1 ml of DMSO was added and absorption of solutions was measured at the wavelength λ=540 nm (A540), using a microplates reader (Victor^3, Perkin-Wallac). […] From these graphs IC50 values were read, that is concentration of tested compound in the presence at which A540 value is half of A540 value measured in the control sample.

[11] = system: HepG2 cells; assay: as above; assay type: cell-based, human
Protocol: as §2

[12] = system: Candida glabrata DSM 11226; assay: antifungal activity in vitro, serial dilution in RPMI 1640; assay type: cell-based
Method in brief: (§3)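 Optical density at 531 nm served as the growth read-out. Values were plotted against compound concentration after serial dilution of each compound in RPMI 1640 medium buffered to pH 7.0, as in the M27-A2 yeast standard.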

[13] = system: Candida krusei DSM 6128; assay: as above; assay type: cell-based
Method in brief: as §3

[14] = system: Saccharomyces cerevisiae ATCC 9763; assay: as above; assay type: cell-based; conditions: RPMI 1640, pH 7.0; for Antifungal activity IC50: Saccharomyces cerevisiae ATCC 9763 (first head over MIC and IC50); for Antifungal activity MIC: Saccharomyces cerevisiae ATCC 9763
Method in brief: as §3

[15] = system: Candida albicans ATCC 10231; assay: as above; assay type: cell-based
Method in brief: as §3

[16] = system: Candida lusitaniae DSM 70102; assay: as above; assay type: cell-based
Method in brief: as §3

[17] = system: Candida tropicalis KKP 334; assay: as above; assay type: cell-based
Method in brief: as §3

[18] = system: Candida arborea KKP 319; assay: antifungal activity in vitro, broader spectrum; assay type: cell-based
Protocol: as §1
(§4) Obtained results are presented below in tables 2A and 2B.

[19] = system: Aspergillus niger LOCK E201; assay: antifungal activity in vitro, broader spectrum; assay type: cell-based
Protocol: as §1, §4

[20] = system: Candida quilliermondii DSM 11947; assay: antifungal activity in vitro, broader spectrum; assay type: cell-based
Protocol: as §1, §4

[21] = system: Candida parapsilosis DSM 5784; assay: antifungal activity in vitro, broader spectrum; assay type: cell-based
Protocol: as §1, §4

[22] = system: Candida pseudotropicalis KKP 324; assay: antifungal activity in vitro, broader spectrum; assay type: cell-based
Protocol: as §1, §4

[23] = system: Candida dubliniensis CBS 7987; assay: antifungal activity in vitro, broader spectrum; assay type: cell-based
Protocol: as §1, §4

[24] = system: Candida albicans SC 5314; assay: antifungal activity in vitro, broader spectrum; assay type: cell-based
Protocol: as §1, §4

[25] = system: Candida stellatoidea CBS 1905; assay: antifungal activity in vitro, broader spectrum; assay type: cell-based
Protocol: as §1, §4

[26] = system: Candida lipolytica KKP 322; assay: antifungal activity in vitro, broader spectrum; assay type: cell-based
Protocol: as §1, §4

[27] = system: Trichoderma viride LOCK E159; assay: antifungal activity in vitro, broader spectrum; assay type: cell-based
Protocol: as §1, §4

[28] = system: Human erythrocytes; assay: hemotoxicity determination (hemolytic activity); assay type: cell-based
Method in brief: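 Human erythrocytes (2×10^7/ml in saline) were incubated with serially diluted compound for 30 min at 37 °C and then centrifuged. Released haemoglobin was read at A540 against a 0.1% Triton X-100 full-lysis control. EH50 is the interpolated concentration giving 50% of the control A540.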

[29] = system: LLC-PK1 cells; assay: cytotoxic activity against mammalian cells in tissue culture (MTT); assay type: cell-based, pig
Protocol: as §2

Compound | Antifungal activity MIC [1] [µg/mL] | Antifungal activity MIC [2] [µg/mL] | Antifungal activity MIC [3] [µg/mL] | Antifungal activity MIC [4] [µg/mL] | Antifungal activity MIC [5] [µg/mL] | Antifungal activity MIC [6] [µg/mL] | Antifungal activity MIC [7] [µg/mL] | Antifungal activity MIC [8] [µg/mL] | Antifungal activity MIC [9] [µg/mL] | IC50 (cytotoxic activity) [10] [µg/mL] | IC50 (cytotoxic activity) [11] [µg/mL] | Antifungal activity MIC [12] [µg/mL] | Antifungal activity MIC [13] [µg/mL] | Antifungal activity IC50 [14] [µg/mL] | Antifungal activity MIC [14] [µg/mL] | Antifungal activity MIC [15] [µg/mL] | Antifungal activity MIC [16] [µg/mL] | Antifungal activity MIC [17] [µg/mL] | Antifungal activity MIC [18] [µg/mL] | Antifungal activity MIC [19] [µg/mL] | further results
C[C@@H]1[C@H](O)[C@@H](C)/C=C/C=C/C=C/C=C/C=C/C=C/C=C/[C@H](O[C@@H]2O[C@H](C)[C@@H](O)[C@H](NC(=S)NCCN3CCCCC3)[C@@H]2O)C[C@@H]2O[C@](O)(C[C@@H](O)C[C@@H](O)[C@H](O)CC[C@@H](O)C[C@@H](O)CC(=O)O[C@H]1C)C[C@H](O)[C@H]2C(=O)O [Compound A22, N-{[3-(2-piperidin-1-yl)ethyl]thioureidyl}amphotericin B] | 4 | 4 | 2 | 1 | 2 | 0.25 | 8 | 0.25 | 2 | >100 | >100 | 4 | 2 | 0.71 | 1 | 1 | 1 | 1 | 2 | 2 | Antifungal activity MIC [20]: 1 µg/mL; Antifungal activity MIC [21]: 2 µg/mL; Antifungal activity MIC [22]: 2 µg/mL; Antifungal activity MIC [23]: 1 µg/mL; Antifungal activity MIC [24]: 2 µg/mL; Antifungal activity MIC [25]: 1 µg/mL; Antifungal activity MIC [26]: 1 µg/mL; Antifungal activity MIC [27]: 2 µg/mL; Hemotoxi EH50 [28]: >100 µg/mL; IC50 (cytotoxic activity) [29]: >100 µg/mL
C[C@@H]1[C@H](O)[C@@H](C)/C=C/C=C/C=C/C=C/C=C/C=C/C=C/[C@H](O[C@@H]2O[C@H](C)[C@@H](O)[C@H](NC(=O)[C@@H](N)Cc3ccccc3)[C@@H]2O)C[C@@H]2O[C@](O)(C[C@@H](O)C[C@@H](O)[C@H](O)CC[C@@H](O)C[C@@H](O)CC(=O)O[C@H]1C)C[C@H](O)[C@H]2C(=O)O [Compound A30, N-L-phenylalanylamphotericin B] | 2 | 2 | 1 | 0.5 | 1 | 0.5 | 4 | 1 | 2 | >100 | >100 | 2 | 2 | 0.90 | 2 | 2 | 2 | 2 | 4 | 2 | Antifungal activity MIC [20]: 1 µg/mL; Antifungal activity MIC [21]: 2 µg/mL; Antifungal activity MIC [22]: 1 µg/mL; Antifungal activity MIC [23]: 1 µg/mL; Antifungal activity MIC [24]: 1 µg/mL; Antifungal activity MIC [25]: 1 µg/mL; Antifungal activity MIC [26]: 2 µg/mL; Antifungal activity MIC [27]: 4 µg/mL; Hemotoxi EH50 [28]: >100 µg/mL; IC50 (cytotoxic activity) [29]: >100 µg/mL
C[C@@H]1[C@H](O)[C@@H](C)/C=C/C=C/C=C/C=C/C=C/C=C/C=C/[C@H](O[C@@H]2O[C@H](C)[C@@H](O)[C@H](NC(=O)[C@@H](N)Cc3ccc([N+](=O)[O-])cc3)[C@@H]2O)C[C@@H]2O[C@](O)(C[C@@H](O)C[C@@H](O)[C@H](O)CC[C@@H](O)C[C@@H](O)CC(=O)O[C@H]1C)C[C@H](O)[C@H]2C(=O)O [Compound A33, N-L-p-nitrophenylalanylamphotericin B] | 1 | 4 | 0.5 | 2 | 1 | 0.5 | 8 | 1 | 1 | >100 | >100 | 4 | 4 | 1.39 | 2 | 2 | 2 | 4 | 2 | 1 | Antifungal activity MIC [20]: 1 µg/mL; Antifungal activity MIC [21]: 1 µg/mL; Antifungal activity MIC [22]: 1 µg/mL; Antifungal activity MIC [23]: 1 µg/mL; Antifungal activity MIC [24]: 1 µg/mL; Antifungal activity MIC [25]: 1 µg/mL; Antifungal activity MIC [26]: 1 µg/mL; Antifungal activity MIC [27]: 4 µg/mL; Hemotoxi EH50 [28]: >100 µg/mL; IC50 (cytotoxic activity) [29]: >100 µg/mL
